PubChem BioAssay AID1996
In brackets after ≈: the same amount, converted by molar mass.

Details: buffer; pH 7.4; 200.0 µM

solubility kinetic [µg/mL]	SMILES
> 42.2	Cc1ccc(C(=O)N2CCN(c3ccccn3)CC2)cc1
> 49.1	COc1ccccc1NC(=O)C1=C(C)NC(=O)NC1c1ccco1 (stereo not given)
24.6 (≈ 84.2 µM)	O=[N+]([O-])c1ccc(O)c(C=Nc2cccc3ccccc23)c1
> 45.8	CC(=O)Nc1c2c(nn1-c1ccc(C)cc1)CS(=O)(=O)C2
34.2 (≈ 137 µM)	CC1(C)CC(=O)C=C(Nc2ccc(Cl)cc2)C1
2.9 (≈ 10 µM)	CCc1ccccc1NC(=O)COC(=O)c1cccs1
> 39.6	COc1ccccc1NC(=O)/C=C1\NC(=O)CS1
> 44.3	CC(C)CCc1noc(CN(C)CCC2CCOCC2)n1
11.2 (≈ 37.4 µM)	N#CC1=C(N)Oc2cc(O)c(Cl)cc2C1c1cccnc1 (stereo not given)
51.4 (≈ 145 µM)	O=C(O)CCC(=O)Nc1ccc(S(=O)(=O)Nc2nccs2)cc1
49 (≈ 144 µM)	COc1ccc(CCNC(=O)C2CCCN(c3ncccn3)C2)cc1 (stereo not given)
> 44.7	Cc1cc(=O)c(C(=O)O)nn1-c1cccc(C(F)(F)F)c1
> 49.3	O=C(CSc1nc2ncccc2[nH]1)Nc1ccc2c(c1)OCO2
> 43.9	CCN(CC(=O)NCc1ccc(F)cc1)C(=O)C1CC1C (stereo not given)
> 45.8	Cc1nn(CC(=O)NC2(C#N)CCCCC2)c(C)c1[N+](=O)[O-]
39.6 (≈ 148 µM)	CC(=O)/C=C\c1ccc(OC(=O)c2cccnc2)cc1
> 69.7	O=C(COC(=O)c1cc(S(=O)(=O)N2CCOCC2)ccc1O)Nc1ccc2c(c1)OCO2
10 (≈ 29.3 µM)	Cc1ccc2c(Cl)cc(Cl)c(OCC(=O)NC(C)(C)C)c2n1
> 49.2	Cn1c(=O)c2c(nc3n2CC(COc2ccccc2)O3)n(C)c1=O (stereo not given)
> 71.5	CCN(CC(=O)NC1CCS(=O)(=O)C1)c1ccc(S(=O)(=O)N(CC)CC)cc1[N+](=O)[O-] (stereo not given)
16.7 (≈ 52.9 µM)	O=C(Cc1c(F)cccc1Cl)Nc1ncc([N+](=O)[O-])s1
< 0.8	CCOc1cc(C(=O)NC)cc(Br)c1OCc1ccccc1
32.9 (≈ 125 µM)	CC(C)c1csc2nc3n(c(=O)c12)CCCCC3
0.4 (≈ 1.27 µM)	COC(OC)c1ccc(C#N)c(SCc2ccc(C)cc2)n1

solubility kinetic [µg/mL]	SMILES
4.2 (≈ 17.3 µM)	c1ccc2c(CN3CCSCC3)cccc2c1
< 0.4	NS(=O)(=O)c1ccc(CCNC(=O)c2ccc(-c3ccccc3)cc2)cc1
> 40.6	Cc1[nH]c2ccccc2c(=O)c1CN1CCCCCC1
51.6 (≈ 149 µM)	Cc1ccc(NC(=O)CN(CCc2ccccc2)S(C)(=O)=O)cc1
> 42.6	O=C(NCCC(=O)N1CCc2ccccc21)c1ccco1
> 28.5	O=C(NCC1CC1)Nc1ccccc1
14.1 (≈ 55.7 µM)	Cc1cc2nc(-c3ccc(=O)[nH]c3)n(C)c2cc1C
> 51.5	CCSCc1nnc(SCC(=O)Nc2nccs2)n1CC
2 (≈ 7.16 µM)	COc1ccc(N/C=C2\CCc3ccccc3C2=O)cc1
1.7 (≈ 4.84 µM)	Cc1ccc(S(=O)(=O)N(C)C)cc1NC(=O)Nc1ccccc1F
12.8 (≈ 40.8 µM)	NS(=O)(=O)c1ccc(CNc2ccc3ccccc3n2)cc1
> 48.4	CC(C)CNC(=S)N1CCC(C(=O)c2ccc(F)cc2)CC1
1.7 (≈ 5.64 µM)	COc1ccccc1/C(C)=N/Oc1cc(N)cc([N+](=O)[O-])c1
> 39.8	CCOC(=O)C(=O)Nc1ccccc1C(=O)OCC
37.1	CSc1ccc(CNCC2CCCO2)cc1.Cl (stereo not given)
> 36.5	O=[N+]([O-])c1cnn2cc(Br)cnc12
1.6 (≈ 4.89 µM)	CCCOc1ccc(C(=O)NC2CCSc3ccccc32)cc1 (stereo not given)
< 0.4	CCOC(=O)C(=CNc1nc2ccc(C(=O)OCC)cc2s1)C(=O)OCC
7.4 (≈ 27 µM)	COc1ccc2nc(NC(=O)c3ccco3)sc2c1
43.9 (≈ 133 µM)	O=C(c1cccc(NS(=O)(=O)c2ccccc2)c1)N1CCCC1
39.2 (≈ 110 µM)	Cc1ccc(NC(=S)N2CCC(NC(=O)c3ccco3)CC2)cc1C
> 49.3	COc1ccccc1NC(=O)CCN1C(=O)C2CC=CCC2C1=O (stereo not given)
> 45.9	Cc1c(Cl)cccc1NC(=O)C1C2C=CC(C2)C1C(=O)O (stereo not given)
> 41.4	O=C(O)CN1C(=O)NC2(CCOc3ccccc32)C1=O (stereo not given)

solubility kinetic [µg/mL]	SMILES
> 39.2	Fc1ccc(NC(=S)NCc2cccnc2)cc1
> 31.7	CNC(=S)Nc1ccc([N+](=O)[O-])cc1
< 0.6	CCOC(=O)c1c(-c2ccc(OC)cc2)cn2ccccc12
10.3 (≈ 34.1 µM)	Cc1ccc(C(C)(c2ccc(N)cc2)c2ccc(N)cc2)cc1
40.9 (≈ 94.1 µM)	COc1ccc(S(=O)(=O)N2CCOCC2)cc1NC(=O)CCCOc1ccccc1
4.5 (≈ 12.5 µM)	COc1ccccc1C(C)NC(=O)CCNC(=O)c1ccc(Cl)cc1 (stereo not given)
1 (≈ 3.04 µM)	Oc1ccc(Br)cc1CNc1cccc2cccnc12
17 (≈ 63.8 µM)	N#CCSc1ccc(-c2nc3ccccc3[nH]2)cn1
0.9 (≈ 2.15 µM)	Cc1ccc(S(=O)(=O)/N=C2\C=C(Nc3ccc(O)cc3)C(=O)c3ccccc32)cc1
13.1 (≈ 42.4 µM)	N#C/C(=C\c1cc(Br)ccc1F)C(=O)NC1CC1
1.2 (≈ 3.69 µM)	Cc1cc(C)c2c(N)c(C(=O)Nc3cccc(C)c3C)sc2n1
< 0.7	CCOC(=O)C1=C(N)Oc2cc(O)ccc2C1c1ccc(F)cc1F (stereo not given)
> 47.4	CC(C)N(C)CCOC(=O)C1COc2ccccc2O1.Cl (stereo not given)
35.9 (≈ 130 µM)	CCOC(=O)c1nc(-c2ccccc2)sc1C(C)=O
> 54.1	COc1ccccc1COC(=O)CN1C(=O)NC2(CCCCC2C)C1=O (stereo not given)
0.4 (≈ 1.31 µM)	COc1ccc(C(=O)O/N=C(\N)c2ccc(Cl)cc2)cc1
7.8 (≈ 31 µM)	O=C1c2ccccc2C(=O)N1CCc1ccccc1
> 50	CCOc1ccc(NC(=S)NC23CN4CN(CN(C4)C2)C3)cc1
67.4 (≈ 146 µM)	Cc1cc(S(=O)(=O)Nc2nc(CN3CCOCC3)nc3sc4c(c23)CCC4)ccc1F
27.8 (≈ 115 µM)	Cc1cccc(NCc2ccc(N(C)C)cc2)n1
11.3 (≈ 36.5 µM)	Cc1ccsc1C(=O)OCC(=O)NC1CCCC(C)C1C (stereo not given)
> 44.3	O=C(Cc1ccc(Cl)cc1Cl)NCc1cccnc1
1.4 (≈ 4 µM)	O=C(c1ccco1)c1cn(CC(=O)N2CCCCCC2)c2ccccc12
34.4 (≈ 103 µM)	CCc1cc2c(SC(C)C(=O)NC3CCCC3)ncnc2s1 (stereo not given)

solubility kinetic [µg/mL]	SMILES
35 (≈ 112 µM)	Cc1ccccc1Oc1nc(-c2ccccn2)nc2ccccc12
> 49.3	Cc1ccccc1Nc1nc(N)nc(CSc2nncn2C)n1
40 (≈ 139 µM)	COc1cccc(NC(=S)NC(=O)c2cccnc2)c1
0.8 (≈ 2.42 µM)	CN1C(=O)c2ccc(NC(=O)c3cccc4ccccc34)cc2C1=O
> 33.3	O=C1NC(=O)N(Cc2ccccc2F)C1=O
35.4 (≈ 127 µM)	CC(=O)Nc1ccc(SCc2csc(C)n2)cc1
> 33.6	CNC(=O)C12N=CNN=C1N(C)C(=O)N2C (stereo not given)
27.7 (≈ 93.5 µM)	O=C(NCc1cccnc1)Nc1cccc(Cl)c1Cl
0.5 (≈ 1.64 µM)	Cc1cc(C)c2cc(C(=O)N3CCc4ccccc4C3)[nH]c2c1
> 36	Cc1cccc(/C=N/NC(=O)c2ccncc2)n1
8.1 (≈ 24.5 µM)	CCc1sc(C(=O)Nc2ccc(N3CCOCC3)cc2)cc1C
32.6 (≈ 139 µM)	COc1cccc(/C=C2\NC(=O)NC2=O)c1O
84.7 (≈ 146 µM)	CCOc1cc(N2CCOCC2)c(OCC)cc1NC(=O)COC(=O)C1CCCN1S(=O)(=O)c1ccccc1F (stereo not given)
6.4 (≈ 18.9 µM)	CCOC(=O)CCCCCN1C(=O)c2cccc3cccc(c23)C1=O
> 45.7	CN1CCCN(S(=O)(=O)c2ccc3ccccc3c2)CC1
> 46.7	COc1ccc(C(CC(=O)O)N2Cc3ccccc3C2=O)cc1 (stereo not given)
23.2 (≈ 75 µM)	O=C(/C=C/c1cccc(O)c1)c1ccc(N2CCOCC2)cc1
> 43.6	Cc1c(-c2ccc(Cl)cc2)[n+](=O)c2c(n1[O-])CCCC2
> 38.5	Cl.O=C(O)C1CCN(Cc2cccnc2)CC1
6 (≈ 16.6 µM)	O=C(CN1C(=O)c2ccccc2S1(=O)=O)Nc1ccc([N+](=O)[O-])cc1
> 34.7	CC(Sc1cccc[n+]1[O-])c1ccccc1 (stereo not given)
38.6 (≈ 129 µM)	Cc1ccc2c(C(=O)CN3CC(C)CC(C)C3)c(C)[nH]c2c1 (stereo not given)
5.4 (≈ 18.6 µM)	Cc1cccc(C(=O)Nc2ccnc(-c3cccnc3)n2)c1
> 45.8	O=C(N/N=C1\CC2CC=CC12)c1ccc(Br)cc1 (stereo not given)

solubility kinetic [µg/mL]	SMILES
> 53.7	COc1cccc(CNCCO)c1OCc1ccc(Cl)cc1.Cl
30.6 (≈ 117 µM)	CCOC(=O)N1CCN(CCc2ccccc2)CC1
> 32.9	Cc1nc(-c2cccs2)ccc1C(=O)O
21.8 (≈ 96.8 µM)	COC(=O)c1sccc1NC(=O)C1CC1
6.2 (≈ 19 µM)	CCOc1nc(C)cc(C)c1S(=O)(=O)c1cccc(Cl)c1
> 42.8	O=C(CSc1nccc(=O)[nH]1)c1c[nH]c2ccccc12
55.4 (≈ 147 µM)	Cc1cc(NC(=O)CSc2ncc(C(=O)O)n2-c2ccc(F)cc2)no1
< 0.7	Cc1ccc(CNC(=O)Cc2ccc(Br)cc2)cc1
> 56.2	CCN(CC(=O)NCc1cccs1)CC(=O)Nc1ccc(C(N)=O)cc1
13.1 (≈ 29.9 µM)	O=C(Nc1cccc(S(=O)(=O)N2CCCCCC2)c1)c1cncc(Br)c1
29.7 (≈ 112 µM)	COc1ccc(CCNC2=NCCS2)cc1OC
2.2 (≈ 6.68 µM)	CC(NC(=O)Nc1cccc([N+](=O)[O-])c1)c1ccc2c(c1)OCO2 (stereo not given)
> 67.9	O=C(COC(=O)c1cc(S(=O)(=O)N2CCOCC2)ccc1Cl)NCc1ccccc1
2.2 (≈ 7.06 µM)	CCOc1ccc(C)cc1S(=O)(=O)NC1CCCCCC1
16.4 (≈ 62.8 µM)	CCOC(=O)c1cc(C#N)c(C)nc1N(CC)CC
> 39.3	Cc1ccc(NC(=O)N2CCCC(C(=O)O)C2)cc1 (stereo not given)
> 51.1	O=C(c1ccc([N+](=O)[O-])cc1)N1CCN(C(=O)c2cccnc2)CC1
5.4 (≈ 14.2 µM)	CCOC(=O)CNC(=O)c1cnc(Nc2ccccc2OC)c2ccccc12
12.7 (≈ 39.8 µM)	COc1ccc(NS(=O)(=O)c2ccc3[nH]c(=O)[nH]c3c2)cc1
> 31.8	Cc1nc(N2CCOCC2)sc1C=O
19.6 (≈ 58.4 µM)	CN1CCN(c2ccc(NC(=O)c3cc4ccccc4o3)cc2)CC1

SMILES	solubility kinetic [µg/mL]
O=C(Nc1ccc(Cl)cc1)OC1CN2CCC1CC2 (stereo not given)	40.5 (≈ 144 µM)
O=C(Nc1ccc(C(F)(F)F)cc1)OC1CN2CCC1CC2 (stereo not given)	45.1 (≈ 143 µM)
COc1ccc(CNCc2ccc(C)cc2)c(OC)c1.O=C(O)C(=O)O	40.5
